Here are results for four compounds from ChEMBL document CHEMBL1127287, “Synthesis and FKBP binding of small molecule mimics of the tricarbonyl region of FK506” (Bioorg Med Chem Lett, 1994).

The target of test [1] is T1, Peptidyl-prolyl cis-trans isomerase FKBP1A (Homo sapiens, UniProt P62942). In words: Percent inhibition towards recombinant FK506 binding protein 12 to determine the FKBP binding property at a concentration of 100 uM.
The target of test [2] is T1, Peptidyl-prolyl cis-trans isomerase FKBP1A. The test can be described thus: Binding affinity towards recombinant FK506 binding protein 12 to determine the FKBP binding property of the compound.

In general, inhibition refers to the share of the control response that was lost under treatment. By IC50 is commonly meant the midpoint of a concentration-inhibition curve.

T1 sequence (P62942 whole entry): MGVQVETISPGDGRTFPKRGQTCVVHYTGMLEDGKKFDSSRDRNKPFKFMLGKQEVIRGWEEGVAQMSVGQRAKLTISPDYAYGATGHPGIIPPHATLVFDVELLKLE

In the case of `C=C(C(=O)N1CCCC[C@H]1C(=O)OCCCCc1ccc(OC)cc1)c1cc(OC)c(OC)c(OC)c1`, in test [1], the inhibition was 39%. The same measure, in the same setting: the figure for `COc1ccc(CCCCOC(=O)[C@@H]2CCCCN2C(=O)C(C)c2cc(OC)c(OC)c(OC)c2)cc1` (stereo not given in full) is 47%. Consider `COc1ccc(CCCCOC(=O)[C@@H]2CCCCN2C(=O)Cc2cc(OC)c(OC)c(OC)c2)cc1`, for which the inhibition in test [1] amounted to 52%. In the case of `COc1ccc(CCCCOC(=O)[C@@H]2CCCCN2C(=O)C(=O)c2cc(OC)c(OC)c(OC)c2)cc1`, in test [1], the inhibition stood at 90%. In addition, the IC50 in test [2] turned out to be 16 µM.
